The test system of one data set is rodents. On the set-up: method as in PMID 32851651. The settings on record: cited from earlier work.
The target of data set [1] is T1, TREK-1 (Homo sapiens, UniProt O95069).
T1 sequence (O95069 1-426): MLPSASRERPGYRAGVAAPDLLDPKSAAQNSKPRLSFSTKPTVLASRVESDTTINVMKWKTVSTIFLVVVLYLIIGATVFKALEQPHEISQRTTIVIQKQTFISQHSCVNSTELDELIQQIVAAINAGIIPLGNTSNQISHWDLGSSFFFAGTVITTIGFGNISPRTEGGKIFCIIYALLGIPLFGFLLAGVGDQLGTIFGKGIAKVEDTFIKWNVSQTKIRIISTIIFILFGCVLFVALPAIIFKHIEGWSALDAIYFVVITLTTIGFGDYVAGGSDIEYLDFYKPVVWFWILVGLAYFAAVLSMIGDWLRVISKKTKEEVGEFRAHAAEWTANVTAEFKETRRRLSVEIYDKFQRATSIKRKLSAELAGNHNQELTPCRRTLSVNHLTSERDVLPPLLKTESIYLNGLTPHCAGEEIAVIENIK
On the set-up: method as in PMID 32851651. The settings on record: read-out: functional EC50 for activation of TREK-1; cited from earlier work.

A short description of data set [2]: rat predicted hepatic clearance (hepatic microsomes). The class given is in vitro ADME. As for the experimental part:
Intrinsic clearance: Human or rat hepatic microsomes (0.5 mg/mL) and 1 µM test compound were incubated in 100 mM potassium phosphate pH 7.4 buffer with 3 mM MgCl2 at 37 °C with constant shaking. After a 5 min preincubation, the reaction was initiated by the addition of NADPH (1 mM). At selected time intervals (0, 3, 7, 15, 25, and 45 min), aliquots were taken and subsequently placed into a 96-well plate containing cold acetonitrile with internal standard (50 ng/mL carbamazepine). Plates were then centrifuged at 3000 rcf (4 °C) for 10 min, and the supernatant was transferred to a separate 96-well plate and diluted 1:1 with water for LC/MS/MS analysis. The in vitro half-life ( 1/2, min, Eq. 1), intrinsic clearance (CLint, mL/min/kg, Eq. 2), and subsequent predicted hepatic clearance (CLhep, mL/min/kg, Eq. 3) was determined employing the […]
where k represents the slope from linear regression analysis of the natural log percent remaining of a test compound as a function of incubation time […]
(2) CLint = in vitroT1/2 x mg microsomes x gram liver x kg body wt ascale-up factors: of 20 (human) or 45 (rat) […]
where Qh (hepatic blood flow, mL/min/kg) is 21 (human) or 70 (rat).
LC/MS/MS Bioanalysis of Samples from Plasma Protein Binding and Intrinsic Clearance […]
Samples were analyzed on a Thermo Electron TSQ Quantum Ultra triple quad mass spectrometer (San Jose, CA) via electrospray ionization (ESI) with two Themo Electron Accella pumps (San Jose, CA), and a Leap Technologies CTC PAL autosampler (Carrboro, NC). Analytes were separated by gradient elution on a dual column system with two Thermo Hypersil Gold (2.1 x 30 mm, 1.9 µm) columns (San Jose, CA) thermostated at 40 °C. HPLC mobile phase A was 0.1% formic acid in water and mobile phase B was 0.1% formic acid in acetonitrile. The gradient started […]
for 0.2 min; returned to 10% B in 0.1 min. The total run time was 1.3 min and the HPLC flow rate was 0.8 mL/min. While pump 1 ran the gradient method, pump 2 equilibrated the alternate column isocratically at 10% B. Compound optimization, data collection, and processing was performed using Thermo Electron's QuickQuan software (v2.3) and Xcalibur (v2.0.7 SP1).

Data set [3] concerns the target T1, TREK-1. Description: TREK-1 activation, BL-1249 series (assay not given). Type of data set: cell-based. The conditions noted are these: assay format not stated.
The next data set concerns the target T2, TREK-2 (Homo sapiens, UniProt P57789).
T2 sequence (P57789 1-538): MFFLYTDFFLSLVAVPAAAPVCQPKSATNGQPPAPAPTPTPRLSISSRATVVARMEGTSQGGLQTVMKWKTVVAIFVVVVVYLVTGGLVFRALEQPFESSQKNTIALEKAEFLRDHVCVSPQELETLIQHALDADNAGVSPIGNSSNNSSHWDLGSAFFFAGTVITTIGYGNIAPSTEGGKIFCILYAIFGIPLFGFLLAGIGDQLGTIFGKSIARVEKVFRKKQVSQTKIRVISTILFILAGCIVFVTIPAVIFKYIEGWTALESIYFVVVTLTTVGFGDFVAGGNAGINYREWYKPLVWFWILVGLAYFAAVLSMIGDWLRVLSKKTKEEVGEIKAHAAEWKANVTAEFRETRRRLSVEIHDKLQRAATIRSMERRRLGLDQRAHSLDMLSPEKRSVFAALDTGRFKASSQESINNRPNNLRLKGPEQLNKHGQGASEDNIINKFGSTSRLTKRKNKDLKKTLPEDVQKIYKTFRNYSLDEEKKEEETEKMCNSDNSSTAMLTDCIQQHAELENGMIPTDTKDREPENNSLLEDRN
Description: TREK-2 activation, BL-1249 series (assay not given). The conditions noted are these: assay format not stated. The class given is cell-based.

Data set [4] in a line: rat plasma protein binding (equilibrium dialysis). Type of data set: in vitro ADME. The conditions noted are these: pH 7.4, read-out: rat plasma fu. As for the experimental part:
In vitro Plasma protein binding and Brain homogenate binding: Determination of fraction unbound (f u) in plasma was conducted in vitro via equilibrium dialysis using HTDialysis (HTD) membrane plates. The top half of the plate was filled with 100 uL of Dubelco’s Phosphate Buffered Saline, pH 7.4 (DPBS). Compounds were diluted into plasma from each species (5 µM final concentration), which was aliquoted in triplicate to the ‘bottom half’ of the prepared HTD plate wells. The HTD plate was sealed and incubated for 6 hours at 37 °C. Following incubation, each well (both top and bottom halves) were transferred (20 µL) to the corresponding wells of a 96-shallow-well (V-bottom) plate. The daughter plates were then matrix-matched (DPBS side wells received equal volume of plasma, and plasma side wells received equal volume of DPBS), and extraction solution (120 µL; acetonitrile containing 50 nM carbamazepine as IS) was added to all wells of both daughter plates to precipitate protein and extract test article. The plates were then sealed and centrifuged (3500 rcf) for 10 minutes at ambient temperature. Supernatant (60 µL) from each well of the daughter plates was then transferred to the corresponding wells of new daughter plates (96-shallow-well, V bottom) containing water (Milli-Q, 60 µL/well), and the plates were sealed in preparation for LC-MS/MS analysis (see LC-MS/MS analysis method below).
The unbound fraction (f u) was calculated following the equation below, and mean values for each species were calculated from 3 replicates. […]
Fraction unbound for both plasma and brain samples was determined using Equation 4.
Equation 4 Determination of fraction unbound in plasma. […]
In general terms: Equilibrium dialysis compares concentrations on both sides of a semipermeable membrane.

The values below come from paper PMC11887051, “Discovery of ONO-2920632 (VU6011887): A Highly Selective and CNS Penetrant TREK-2 (TWIK-Related K+ Channel 2) Preferring Activator In Vivo Tool Compound” (ACS Chemical Neuroscience, 2025).

In general, EC50 refers to the concentration needed to bring the measured effect to its halfway point. As a reminder, the Emax is the maximal effect, on the per cent scale that the assay sets.

Read-outs that look alike come from different tables or passages of the source.

For `N#C/C(=C\c1ccoc1)C(=O)O` [Compound 3], in the data set with rodents, the “morphine-like adverse events at efficacious doses” value is “did not induce respiratory depression, rewarding effects, depression, constipation or other morphine-inducing adverse events”. Moreover, in the data set with rodents (naïve rodents and models of neuropathic and inflammatory pain), the antinociceptive activity entry is recorded as “antinociceptive activity”. Besides, the EC50 at TREK-1 [1] was 37 µM.
In the case of `O=c1[nH]c(-c2ccc(F)cc2Nc2cccc(C(F)(F)F)c2)no1` [Compound 11], the “rat CLhep (predicted hepatic clearance)” value in data set [2] is given as 26.8 mL/min/kg. For the same compound, on TREK-1 [3], the EC50 came out at 3.6 µM and the Emax stood at 67%. At TREK-2, the EC50 is 12.9 µM and the Emax was found to be 129%. The fraction unbound at 6 h, 5 µM in data set [4] is 0.042.
